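Cultured in 96-well plates, cells were exposed to test compound for 48 hours across five concentrations. At the GI50, growth is halved.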 Active and inactive are the calls of the source. No stated cut-off is given here; in the data, active = GI50 up to about 1.1 µM and inactive = higher.
Assays:
Assay in all cases: growth of human tumour cells (NCI), 48 h
A549 = system: A549
HT-29 = system: HT-29
IGROV-1 = system: IGROV-1
KM12 = system: KM12
M14 = system: M14
MDA-MB-231 = system: MDA-MB-231
MDA-MB-435 = system: MDA-MB-435
MOLT-4 = system: MOLT-4
NCI-H23 = system: NCI-H23
NCI/ADR-RES = system: NCI/ADR-RES
OVCAR-8 = system: OVCAR-8
SF-539 = system: SF-539
SK-MEL-28 = system: SK-MEL-28
SN12C = system: SN12C
SNB-19 = system: SNB-19
SNB-75 = system: SNB-75
SR = system: SR
SW-620 = system: SW-620
TK-10 = system: TK-10
HOP-92 = system: HOP-92

SMILES | GI50 (A549) | GI50 (HT-29) | GI50 (IGROV-1) | GI50 (KM12) | GI50 (M14) | GI50 (MDA-MB-231) | GI50 (MDA-MB-435) | GI50 (MOLT-4) | GI50 (NCI-H23) | GI50 (NCI/ADR-RES) | GI50 (OVCAR-8) | GI50 (SF-539) | GI50 (SK-MEL-28) | GI50 (SN12C) | GI50 (SNB-19) | GI50 (SNB-75) | GI50 (SR) | GI50 (SW-620) | GI50 (TK-10) | GI50 (HOP-92)
CCC(C)C1=C(OC(C)=O)[N+]2([O-])Oc3ccc(-c4c(OC(C)=O)c(OC(C)=O)c(-c5ccc(OC(C)=O)cc5)c(OC(C)=O)c4OC(C)=O)cc3OC2(C(C)CC)C(=O)N1OC(C)=O (centres undefined) | 18 µM (inactive) | 19.9 µM (inactive) | 11.5 µM (inactive) | 19.3 µM (inactive) | 20.1 µM (inactive) | 40.3 µM (inactive) | 17.5 µM (inactive) | 11.1 µM (inactive) | 20.6 µM (inactive) | > 50 µM (inactive) | 22.4 µM (inactive) | 42.3 µM (inactive) | 19.5 µM (inactive) | 34.3 µM (inactive) | 30.1 µM (inactive) | 14.8 µM (inactive) | 13.7 µM (inactive) | 20.5 µM (inactive) | 37.7 µM (inactive) | –
C=C1C2CCC3(CCC4C5(C)CCCC4(C=[N+](CCO)C5)C3C2)C1O (centres undefined) | > 100 µM (inactive) | > 100 µM (inactive) | > 100 µM (inactive) | > 100 µM (inactive) | > 100 µM (inactive) | > 100 µM (inactive) | > 100 µM (inactive) | – | > 100 µM (inactive) | > 100 µM (inactive) | > 100 µM (inactive) | > 100 µM (inactive) | > 100 µM (inactive) | > 100 µM (inactive) | > 100 µM (inactive) | > 100 µM (inactive) | > 100 µM (inactive) | > 100 µM (inactive) | > 100 µM (inactive) | > 100 µM (inactive)
Cc1ccc2c(O)cc(-c3cccc4ccccc34)nc2n1 | 0.032 µM (active) | < 0.0116 µM (active) | 0.0627 µM (active) | 0.0241 µM (active) | 0.0247 µM (active) | 0.0522 µM (active) | < 0.01 µM (active) | 0.0698 µM (active) | 0.0352 µM (active) | 0.0186 µM (active) | 0.032 µM (active) | 0.0216 µM (active) | 0.016 µM (active) | 0.181 µM (active) | 0.0445 µM (active) | 0.0116 µM (active) | < 0.01 µM (active) | 0.0203 µM (active) | – | 0.0127 µM (active)
C=C[C@@]1(C)CC(=O)[C@]2(O)[C@@]3(C)[C@@H](OC(C)=O)CCC(C)(C)[C@@H]3[C@H](O)[C@H](OC(C)=O)[C@@]2(C)O1 | > 100 µM (inactive) | > 100 µM (inactive) | > 100 µM (inactive) | 13.4 µM (inactive) | > 100 µM (inactive) | > 100 µM (inactive) | > 100 µM (inactive) | > 100 µM (inactive) | > 100 µM (inactive) | > 100 µM (inactive) | > 100 µM (inactive) | > 100 µM (inactive) | > 100 µM (inactive) | > 100 µM (inactive) | > 100 µM (inactive) | 27.6 µM (inactive) | > 100 µM (inactive) | > 100 µM (inactive) | – | > 100 µM (inactive)
Nc1nc(N)c2c(n1)CCC(S(=O)(=O)c1ccc3ccccc3c1)C2 (centres undefined) | 0.54 µM (active) | 1.26 µM (inactive) | – | 6.08 µM (inactive) | 12.6 µM (inactive) | 42.4 µM (inactive) | 0.714 µM (active) | 2 µM (inactive) | 2.53 µM (inactive) | 43.8 µM (inactive) | 5.26 µM (inactive) | 3.8 µM (inactive) | 27.7 µM (inactive) | 7 µM (inactive) | 3.61 µM (inactive) | – | 4.08 µM (inactive) | 59.3 µM (inactive) | 4.57 µM (inactive) | 9.1 µM (inactive)
COc1cc([C@@H]2c3cc4c(cc3[C@H](OC3OC5COC(C(C)C)OC5C(O)C3O)C3COC(=O)[C@@H]32)OCO4)cc(OC)c1O (some centres undefined) | 8.67 µM (inactive) | 2.97 µM (inactive) | 5.21 µM (inactive) | 16.1 µM (inactive) | 11.4 µM (inactive) | 14.1 µM (inactive) | 4.58 µM (inactive) | 3.17 µM (inactive) | 4.03 µM (inactive) | 9.38 µM (inactive) | 9.31 µM (inactive) | 2.72 µM (inactive) | – | – | 14.6 µM (inactive) | – | 1.47 µM (inactive) | 6.53 µM (inactive) | 23.5 µM (inactive) | 11.9 µM (inactive)
CC(C)(C)OC(=O)NCCCCC1NC(=O)[C@@H]2Cc3c([nH]c4ccccc34)C(C3CCCCC3)N2C1=O (some centres undefined) | 30.5 µM (inactive) | 28.1 µM (inactive) | 56.5 µM (inactive) | 23.6 µM (inactive) | 22.9 µM (inactive) | 31.6 µM (inactive) | 23.6 µM (inactive) | 5.28 µM (inactive) | 49.8 µM (inactive) | 57.9 µM (inactive) | 43 µM (inactive) | – | 85.1 µM (inactive) | 39.1 µM (inactive) | 57.7 µM (inactive) | – | 15.2 µM (inactive) | 61.8 µM (inactive) | 21.8 µM (inactive) | 26 µM (inactive)
O=C(O)CCC(=O)c1ccc2c(c1)C(C(=O)O)CC2 (centres undefined) | 0.0902 µM (active) | > 100 µM (inactive) | > 100 µM (inactive) | > 100 µM (inactive) | > 100 µM (inactive) | > 100 µM (inactive) | > 100 µM (inactive) | > 100 µM (inactive) | > 100 µM (inactive) | > 100 µM (inactive) | 0.652 µM (active) | > 100 µM (inactive) | > 100 µM (inactive) | > 100 µM (inactive) | > 100 µM (inactive) | – | > 100 µM (inactive) | > 100 µM (inactive) | > 100 µM (inactive) | > 100 µM (inactive)
O=C(/C=C/c1ccc(O)cc1)NCCc1ccc(O)cc1 [N-P-COUMAROYL TYRAMINE] | 4.06 µM (inactive) | > 12.5 µM (inactive) | 8.3 µM (inactive) | > 12.5 µM (inactive) | > 12.5 µM (inactive) | > 12.5 µM (inactive) | > 12.5 µM (inactive) | – | 7.16 µM (inactive) | 3.62 µM (inactive) | > 12.5 µM (inactive) | 3.13 µM (inactive) | > 12.5 µM (inactive) | 5 µM (inactive) | > 12.5 µM (inactive) | – | 4.02 µM (inactive) | > 12.5 µM (inactive) | 3.72 µM (inactive) | 5.14 µM (inactive)
COc1ccc(C2(CC(C)C)CCNC2)cc1OC (centres undefined) | > 100 µM (inactive) | 39.1 µM (inactive) | 26.5 µM (inactive) | > 100 µM (inactive) | > 100 µM (inactive) | > 100 µM (inactive) | > 100 µM (inactive) | – | 78.2 µM (inactive) | > 100 µM (inactive) | > 100 µM (inactive) | – | > 100 µM (inactive) | > 100 µM (inactive) | > 100 µM (inactive) | 8.18 µM (inactive) | 76.4 µM (inactive) | > 100 µM (inactive) | > 100 µM (inactive) | 19.8 µM (inactive)
CN(C)c1ccc(/C=C(\NC(=O)c2ccccc2)C(=O)Nc2ccccc2C(=O)NN2C(=O)CSC2c2ccc(N(C)C)cc2)cc1 (centres undefined) | > 100 µM (inactive) | > 100 µM (inactive) | > 100 µM (inactive) | > 100 µM (inactive) | > 100 µM (inactive) | > 100 µM (inactive) | 66.5 µM (inactive) | > 100 µM (inactive) | > 100 µM (inactive) | > 100 µM (inactive) | > 100 µM (inactive) | 79.8 µM (inactive) | > 100 µM (inactive) | > 100 µM (inactive) | > 100 µM (inactive) | > 100 µM (inactive) | > 100 µM (inactive) | > 100 µM (inactive) | – | > 100 µM (inactive)
COC(=O)c1ccccc1NC(=O)/C(=N\NC(C)(C)C)C(C#N)c1nc(-c2ccc([N+](=O)[O-])cc2)cs1 (centres undefined) | > 100 µM (inactive) | > 100 µM (inactive) | > 100 µM (inactive) | > 100 µM (inactive) | > 100 µM (inactive) | > 100 µM (inactive) | > 100 µM (inactive) | > 100 µM (inactive) | > 100 µM (inactive) | > 100 µM (inactive) | > 100 µM (inactive) | > 100 µM (inactive) | > 100 µM (inactive) | > 100 µM (inactive) | > 100 µM (inactive) | > 100 µM (inactive) | > 100 µM (inactive) | > 100 µM (inactive) | – | > 100 µM (inactive)
Cn1cnc(N)c(N=O)c1=O | > 10 µM (inactive) | > 10 µM (inactive) | > 10 µM (inactive) | > 10 µM (inactive) | > 10 µM (inactive) | > 10 µM (inactive) | > 10 µM (inactive) | > 10 µM (inactive) | > 10 µM (inactive) | > 10 µM (inactive) | > 10 µM (inactive) | > 10 µM (inactive) | > 10 µM (inactive) | > 10 µM (inactive) | > 10 µM (inactive) | > 10 µM (inactive) | > 10 µM (inactive) | > 10 µM (inactive) | > 10 µM (inactive) | –
O=C1CSC2=NC3=C(CSC/C3=C\c3ccc(Cl)cc3)C(c3ccc(Cl)cc3)N12 (centres undefined) | 6.87 µM (inactive) | 20.2 µM (inactive) | 41.9 µM (inactive) | 8.04 µM (inactive) | 19.1 µM (inactive) | 21.8 µM (inactive) | 25.1 µM (inactive) | 9.08 µM (inactive) | 19.9 µM (inactive) | 24.4 µM (inactive) | 8.43 µM (inactive) | – | 27 µM (inactive) | 12.4 µM (inactive) | 37.2 µM (inactive) | – | 14.9 µM (inactive) | 23.8 µM (inactive) | 32 µM (inactive) | 10.3 µM (inactive)
